Data from patent EP4467141A1, “PYRAZOLO-QUINOLINES AS SELECTIVE INHIBITORS OF GENOTOXIC STRESS-INDUCED IKK/NF- KB PATHWAYS FOR CANCER THERAPY” (Max-Delbrück-Centrum für Molekulare Medizin in der …, priority 2023, dated 2024).

What was measured:
Assay in all cases: Kinase panel study
Format in all cases: biochemical
Settings in all cases: read-out: Percentage of inhibition; for inhibition at 1 µM: 1000nM; for inhibition at 10 µM: 10000nM
AMPK (A1/B2/G2) = molecular target: T1, AMPK (A1/B2/G2) (Homo sapiens, UniProt Q13131)
T1 construct: purchased Thermo Fisher Scientific
Procedure, shortened: (§1)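 A commercial kinase profiling service ran the assays according to its ZLyte or Adapta standard protocols. Compound was present at 10 µM or 1 µM, and kinase activity loss was expressed as percent inhibition.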

PIM3 = molecular target: T2, PIM3 (Homo sapiens, UniProt Q86V86)
T2 construct: purchased Thermo Fisher Scientific
Procedure, shortened: as §1

FES (FPS) = molecular target: T3, FES (FPS) (Homo sapiens, UniProt P07332)
T3 construct: purchased Thermo Fisher Scientific
Procedure, shortened: as §1

CSNK1E (CK1 epsilon) = molecular target: T4, CSNK1E (CK1 epsilon) (Homo sapiens, UniProt P49674)
T4 construct: purchased Thermo Fisher Scientific
Procedure, shortened: as §1

LRRK2 FL = molecular target: T5, LRRK2 FL (Homo sapiens, UniProt Q5S007)
T5 construct: LRRK2 FL; purchased Thermo Fisher Scientific
Procedure, shortened: as §1

PAK6 = molecular target: T6, PAK6 (Homo sapiens, UniProt Q9NQU5)
T6 construct: purchased Thermo Fisher Scientific
Procedure, shortened: as §1

HIPK2 = molecular target: T7, HIPK2 (Homo sapiens, UniProt Q9H2X6)
T7 construct: purchased Thermo Fisher Scientific
Procedure, shortened: as §1

RPS6KB1 (p70S6K) = molecular target: T8, RPS6KB1 (p70S6K) (Homo sapiens, UniProt P23443)
T8 construct: purchased Thermo Fisher Scientific
Procedure, shortened: as §1

PIK3C3 (hVPS34) = molecular target: T9, PIK3C3 (hVPS34) (Homo sapiens, UniProt Q8NEB9)
T9 construct: purchased Thermo Fisher Scientific
Procedure, shortened: as §1

GRK5 = molecular target: T10, GRK5 (Homo sapiens, UniProt P34947)
T10 construct: purchased Thermo Fisher Scientific
Procedure, shortened: as §1

[1] = molecular target: T11, CSNK1E (CK1 epsilon) R178C (Homo sapiens, UniProt P49674, R178C)
T11 construct: purchased Thermo Fisher Scientific
T11 sequence (P49674 1-416 R178C): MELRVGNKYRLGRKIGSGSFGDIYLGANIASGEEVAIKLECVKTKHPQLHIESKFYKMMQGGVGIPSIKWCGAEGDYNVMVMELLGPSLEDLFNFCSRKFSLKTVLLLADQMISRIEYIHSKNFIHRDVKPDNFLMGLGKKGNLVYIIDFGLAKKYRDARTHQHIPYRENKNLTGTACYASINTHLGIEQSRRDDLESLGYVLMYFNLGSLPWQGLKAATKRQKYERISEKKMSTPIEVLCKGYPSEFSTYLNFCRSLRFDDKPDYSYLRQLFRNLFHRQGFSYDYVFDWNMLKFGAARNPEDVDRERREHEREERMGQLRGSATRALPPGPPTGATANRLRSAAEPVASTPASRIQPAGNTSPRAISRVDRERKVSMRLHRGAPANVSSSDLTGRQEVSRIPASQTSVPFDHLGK
Procedure, shortened: as §1

FLT4 (VEGFR3) = molecular target: T12, FLT4 (VEGFR3) (Homo sapiens, UniProt P35916)
T12 construct: purchased Thermo Fisher Scientific
Procedure, shortened: as §1

PRKCA (PKC alpha) = molecular target: T13, PRKCA (PKC alpha) (Homo sapiens, UniProt P17252)
T13 construct: purchased Thermo Fisher Scientific
Procedure, shortened: as §1

MAP4K5 (KHS1) = molecular target: T14, MAP4K5 (KHS1) (Homo sapiens, UniProt Q9Y4K4)
T14 construct: purchased Thermo Fisher Scientific
Procedure, shortened: as §1

PTK2B (FAK2) = molecular target: T15, PTK2B (FAK2) (Homo sapiens, UniProt Q14289)
T15 construct: purchased Thermo Fisher Scientific
Procedure, shortened: as §1

CDK5/p35 = molecular target: T16, CDK5/p35 (Homo sapiens, UniProt Q00535)
T16 construct: purchased Thermo Fisher Scientific
Procedure, shortened: as §1

FGFR3 V555M = molecular target: T17, FGFR3 V555M (Homo sapiens, UniProt P22607, V555M)
T17 construct: purchased Thermo Fisher Scientific
Procedure, shortened: as §1

RPS6KA6 (RSK4) = molecular target: T18, RPS6KA6 (RSK4) (Homo sapiens, UniProt Q9UK32)
T18 construct: purchased Thermo Fisher Scientific
Procedure, shortened: as §1

EGFR (ErbB1) T790M L858R = molecular target: T19, EGFR (ErbB1) T790M L858R (Homo sapiens, UniProt P00533, L858R/T790M)
T19 construct: purchased Thermo Fisher Scientific
Procedure, shortened: as §1

RET Y791F = molecular target: T20, RET Y791F (Homo sapiens, UniProt P07949, Y791F)
T20 construct: purchased Thermo Fisher Scientific
Procedure, shortened: as §1

T1 sequence (Q13131 whole entry): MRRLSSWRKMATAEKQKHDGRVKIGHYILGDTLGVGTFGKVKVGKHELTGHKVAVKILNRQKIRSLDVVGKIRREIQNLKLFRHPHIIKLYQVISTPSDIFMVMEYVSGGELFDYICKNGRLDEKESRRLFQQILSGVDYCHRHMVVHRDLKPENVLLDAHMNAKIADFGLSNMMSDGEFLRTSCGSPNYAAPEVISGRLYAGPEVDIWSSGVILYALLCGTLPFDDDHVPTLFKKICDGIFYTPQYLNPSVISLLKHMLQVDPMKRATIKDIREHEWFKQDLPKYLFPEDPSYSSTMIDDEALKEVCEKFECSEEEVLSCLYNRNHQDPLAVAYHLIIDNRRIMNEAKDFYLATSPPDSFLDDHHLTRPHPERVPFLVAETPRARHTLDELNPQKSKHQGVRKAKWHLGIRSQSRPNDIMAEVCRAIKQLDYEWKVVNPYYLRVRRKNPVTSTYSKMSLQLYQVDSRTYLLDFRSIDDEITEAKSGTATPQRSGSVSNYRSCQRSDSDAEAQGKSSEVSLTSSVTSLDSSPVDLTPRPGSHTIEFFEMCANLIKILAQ
T1 sequence (O43741 whole entry partner): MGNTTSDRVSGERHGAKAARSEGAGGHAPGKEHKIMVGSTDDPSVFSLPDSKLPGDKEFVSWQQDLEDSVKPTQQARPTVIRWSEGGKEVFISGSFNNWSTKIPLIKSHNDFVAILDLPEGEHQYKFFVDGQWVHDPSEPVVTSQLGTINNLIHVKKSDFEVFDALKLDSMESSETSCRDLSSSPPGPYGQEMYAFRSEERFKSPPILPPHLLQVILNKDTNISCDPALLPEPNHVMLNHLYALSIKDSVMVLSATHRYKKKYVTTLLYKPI
T1 sequence (Q9UGJ0 whole entry partner): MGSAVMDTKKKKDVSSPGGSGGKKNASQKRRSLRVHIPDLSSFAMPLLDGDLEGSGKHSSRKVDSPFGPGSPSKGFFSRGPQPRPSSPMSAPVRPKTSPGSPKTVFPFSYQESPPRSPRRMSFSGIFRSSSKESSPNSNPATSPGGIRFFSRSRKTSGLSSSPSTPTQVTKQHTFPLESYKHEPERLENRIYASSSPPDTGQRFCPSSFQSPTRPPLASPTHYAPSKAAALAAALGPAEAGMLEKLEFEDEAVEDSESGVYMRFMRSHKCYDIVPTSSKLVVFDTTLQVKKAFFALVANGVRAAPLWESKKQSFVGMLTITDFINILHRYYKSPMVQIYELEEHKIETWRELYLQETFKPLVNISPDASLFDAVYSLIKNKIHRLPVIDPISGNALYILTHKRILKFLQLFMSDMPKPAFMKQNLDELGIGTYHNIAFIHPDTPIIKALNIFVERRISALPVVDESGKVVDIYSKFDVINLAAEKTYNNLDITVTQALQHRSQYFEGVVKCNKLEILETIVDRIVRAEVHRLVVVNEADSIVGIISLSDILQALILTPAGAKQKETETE
T18 sequence (Q9UK32 whole entry): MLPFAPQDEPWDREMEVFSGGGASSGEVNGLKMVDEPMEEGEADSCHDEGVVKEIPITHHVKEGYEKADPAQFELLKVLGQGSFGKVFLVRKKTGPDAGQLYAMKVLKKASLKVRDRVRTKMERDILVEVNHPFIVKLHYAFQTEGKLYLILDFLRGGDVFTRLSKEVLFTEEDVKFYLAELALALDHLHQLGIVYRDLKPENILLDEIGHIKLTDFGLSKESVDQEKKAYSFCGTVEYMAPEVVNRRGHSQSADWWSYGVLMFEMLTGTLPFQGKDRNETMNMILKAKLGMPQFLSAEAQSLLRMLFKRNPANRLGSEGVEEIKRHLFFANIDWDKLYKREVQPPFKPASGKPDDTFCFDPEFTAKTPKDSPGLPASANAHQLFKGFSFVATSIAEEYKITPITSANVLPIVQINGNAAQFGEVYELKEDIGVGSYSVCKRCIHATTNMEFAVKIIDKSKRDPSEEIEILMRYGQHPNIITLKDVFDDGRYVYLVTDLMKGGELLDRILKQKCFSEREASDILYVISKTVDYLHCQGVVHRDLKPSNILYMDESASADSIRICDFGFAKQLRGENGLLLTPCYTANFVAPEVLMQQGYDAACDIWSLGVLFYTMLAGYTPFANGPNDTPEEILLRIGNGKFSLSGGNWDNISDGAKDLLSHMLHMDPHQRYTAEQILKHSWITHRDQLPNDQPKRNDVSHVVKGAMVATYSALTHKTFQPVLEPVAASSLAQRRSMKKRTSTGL
T7 sequence (Q9H2X6 whole entry): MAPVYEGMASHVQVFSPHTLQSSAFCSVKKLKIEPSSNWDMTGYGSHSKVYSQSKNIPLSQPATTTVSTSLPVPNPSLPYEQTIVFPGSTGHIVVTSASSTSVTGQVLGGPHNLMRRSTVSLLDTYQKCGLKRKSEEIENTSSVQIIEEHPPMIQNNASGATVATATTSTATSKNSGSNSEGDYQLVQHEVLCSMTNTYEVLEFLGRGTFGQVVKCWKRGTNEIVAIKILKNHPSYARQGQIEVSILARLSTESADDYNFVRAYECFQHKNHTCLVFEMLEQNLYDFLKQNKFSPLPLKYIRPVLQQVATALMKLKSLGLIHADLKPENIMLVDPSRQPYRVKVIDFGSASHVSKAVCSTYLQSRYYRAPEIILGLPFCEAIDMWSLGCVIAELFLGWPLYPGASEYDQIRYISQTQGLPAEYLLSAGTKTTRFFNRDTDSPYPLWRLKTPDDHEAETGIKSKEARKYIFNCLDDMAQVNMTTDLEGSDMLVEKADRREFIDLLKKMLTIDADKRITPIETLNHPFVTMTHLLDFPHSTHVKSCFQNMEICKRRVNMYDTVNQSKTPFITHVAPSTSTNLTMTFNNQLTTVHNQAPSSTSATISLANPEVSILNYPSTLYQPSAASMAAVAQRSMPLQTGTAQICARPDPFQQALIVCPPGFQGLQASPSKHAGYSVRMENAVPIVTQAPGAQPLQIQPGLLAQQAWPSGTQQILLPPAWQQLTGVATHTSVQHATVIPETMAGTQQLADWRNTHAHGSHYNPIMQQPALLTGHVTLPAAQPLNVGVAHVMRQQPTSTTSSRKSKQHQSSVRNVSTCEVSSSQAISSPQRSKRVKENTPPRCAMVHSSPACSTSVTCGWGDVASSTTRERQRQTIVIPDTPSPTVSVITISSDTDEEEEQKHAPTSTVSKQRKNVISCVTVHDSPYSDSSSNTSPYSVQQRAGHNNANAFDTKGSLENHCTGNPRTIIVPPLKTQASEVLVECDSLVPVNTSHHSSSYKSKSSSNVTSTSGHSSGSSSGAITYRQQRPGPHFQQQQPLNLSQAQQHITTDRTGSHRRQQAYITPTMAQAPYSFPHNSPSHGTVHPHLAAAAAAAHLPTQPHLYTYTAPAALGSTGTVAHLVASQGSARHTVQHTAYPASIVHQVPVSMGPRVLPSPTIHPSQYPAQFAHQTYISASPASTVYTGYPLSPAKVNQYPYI
T17 sequence (P22607 23-806 V555M): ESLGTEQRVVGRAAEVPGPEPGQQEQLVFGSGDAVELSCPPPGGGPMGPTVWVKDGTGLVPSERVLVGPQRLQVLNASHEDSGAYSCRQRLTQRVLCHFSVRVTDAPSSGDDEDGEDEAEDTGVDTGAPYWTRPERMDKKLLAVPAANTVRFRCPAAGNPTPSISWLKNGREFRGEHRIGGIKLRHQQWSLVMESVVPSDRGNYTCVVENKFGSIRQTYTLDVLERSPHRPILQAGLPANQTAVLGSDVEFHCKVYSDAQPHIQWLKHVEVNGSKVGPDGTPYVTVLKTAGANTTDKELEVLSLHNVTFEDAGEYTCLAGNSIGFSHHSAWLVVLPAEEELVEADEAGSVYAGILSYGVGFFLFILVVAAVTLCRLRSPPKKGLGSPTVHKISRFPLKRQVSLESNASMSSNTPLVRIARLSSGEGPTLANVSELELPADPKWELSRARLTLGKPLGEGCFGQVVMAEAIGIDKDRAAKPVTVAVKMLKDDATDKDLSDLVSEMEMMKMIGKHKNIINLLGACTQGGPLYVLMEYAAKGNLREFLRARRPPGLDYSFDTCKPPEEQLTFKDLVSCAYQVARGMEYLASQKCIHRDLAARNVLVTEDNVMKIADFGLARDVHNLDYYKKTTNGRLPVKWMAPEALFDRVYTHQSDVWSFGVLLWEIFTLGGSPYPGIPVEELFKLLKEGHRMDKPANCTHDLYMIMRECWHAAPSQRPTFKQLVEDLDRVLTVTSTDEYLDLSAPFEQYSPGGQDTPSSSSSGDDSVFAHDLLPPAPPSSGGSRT

SMILES | inhibition at 1 µM (AMPK (A1/B2/G2)) [%] | inhibition at 10 µM (AMPK (A1/B2/G2)) [%] | inhibition at 1 µM (PIM3) [%] | inhibition at 10 µM (PIM3) [%] | inhibition at 1 µM (FES (FPS)) [%] | inhibition at 10 µM (FES (FPS)) [%] | inhibition at 1 µM (CSNK1E (CK1 epsilon)) [%] | inhibition at 10 µM (CSNK1E (CK1 epsilon)) [%] | inhibition at 1 µM (LRRK2 FL) [%] | inhibition at 10 µM (LRRK2 FL) [%] | inhibition at 1 µM (PAK6) [%] | inhibition at 10 µM (PAK6) [%] | inhibition at 1 µM (HIPK2) [%] | inhibition at 10 µM (HIPK2) [%] | inhibition at 1 µM (RPS6KB1 (p70S6K)) [%] | inhibition at 10 µM (RPS6KB1 (p70S6K)) [%] | inhibition at 1 µM (PIK3C3 (hVPS34)) [%] | inhibition at 10 µM (PIK3C3 (hVPS34)) [%] | inhibition at 1 µM (GRK5) [%] | inhibition at 10 µM (GRK5) [%] | also measured
COc1ccc2c(c1OC)c(=O)n1c3ccc(O)cc3c3ccnc2c31 [MW01, 5-Hydroxy-10,11-dimethoxy-9H-benzo[c]indolo[3,2,1-ij][1,5]naphthyridin-9-one] | -6 | 5 | 22 | 42 | 0 | 15 | 6 | 32 | 85 | 90 | 5 | -10 | 48 | 74 | 19 | 15 | 23 | 49 | -3 | 0 | inhibition at 1 µM [1]: 23%; inhibition at 10 µM [1]: 64%; inhibition at 1 µM (FLT4 (VEGFR3)): 13%; inhibition at 10 µM (FLT4 (VEGFR3)): 31%; inhibition at 1 µM (PRKCA (PKC alpha)): 11%; inhibition at 10 µM (PRKCA (PKC alpha)): 18%; inhibition at 1 µM (MAP4K5 (KHS1)): 39%; inhibition at 10 µM (MAP4K5 (KHS1)): 68%; inhibition at 1 µM (PTK2B (FAK2)): 2%; inhibition at 10 µM (PTK2B (FAK2)): 9%; inhibition at 1 µM (CDK5/p35): 17%; inhibition at 10 µM (CDK5/p35): 14%; inhibition at 1 µM (FGFR3 V555M): 5%; inhibition at 10 µM (FGFR3 V555M): 11%; inhibition at 1 µM (RPS6KA6 (RSK4)): 5%; inhibition at 10 µM (RPS6KA6 (RSK4)): 17%; inhibition at 1 µM (EGFR (ErbB1) T790M L858R): 9%; inhibition at 10 µM (EGFR (ErbB1) T790M L858R): 29%; inhibition at 1 µM (RET Y791F): 17%; inhibition at 10 µM (RET Y791F): 32%
COc1ccc2cc3c(N)nn(C(=O)c4cccc(N(C)C)c4)c3nc2c1 [MW05, (3-Amino-7-methoxypyrazolo[3,4-b]quinolin-1-yl)-[3-(dimethylamino)phenyl]methanone] | -10 | 4 | 11 | 2 | 1 | -1 | 2 | 0 | -6 | 6 | 11 | 3 | 4 | 13 | 12 | 7 | 4 | 4 | -2 | 0 | inhibition at 1 µM [1]: 0%; inhibition at 10 µM [1]: 6%; inhibition at 1 µM (FLT4 (VEGFR3)): 7%; inhibition at 10 µM (FLT4 (VEGFR3)): -3%; inhibition at 1 µM (PRKCA (PKC alpha)): 4%; inhibition at 10 µM (PRKCA (PKC alpha)): -1%; inhibition at 1 µM (MAP4K5 (KHS1)): 15%; inhibition at 10 µM (MAP4K5 (KHS1)): 4%; inhibition at 1 µM (PTK2B (FAK2)): -2%; inhibition at 10 µM (PTK2B (FAK2)): -7%; inhibition at 1 µM (CDK5/p35): 5%; inhibition at 10 µM (CDK5/p35): 7%; inhibition at 1 µM (FGFR3 V555M): -30%; inhibition at 10 µM (FGFR3 V555M): -9%; inhibition at 1 µM (RPS6KA6 (RSK4)): 2%; inhibition at 10 µM (RPS6KA6 (RSK4)): 4%; inhibition at 1 µM (EGFR (ErbB1) T790M L858R): -5%; inhibition at 10 µM (EGFR (ErbB1) T790M L858R): 10%; inhibition at 1 µM (RET Y791F): 5%; inhibition at 10 µM (RET Y791F): 7%
